Experimental data published in PubChem BioAssay AID2060904 (Molecular Pharmacology Branch, DTP, NCI, 2025).
Values belong to the molecule of their own block, whether it stands above or below them.

System: 349418-098-R-PDC complex spheroid viability
Assay: Anticancer human tumor 349418-098-R-PDC patient-derived lung adenocarcinoma cell line growth inhibition [RAS]
Conditions: for IC50: curve of first compound; for viability, T/C: stronger effect = lower value
Method in brief: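 Agents were tested in combination matrices in half-log decrements from a top concentration at or near clinical Cmax (10 microM if undetermined). Targets were multi-cell spheroids of tumour lines plus HUVEC and MSC stromal cells.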

[1] = second compound 0.000949 µM, first compound 0.0316 µM
[2] = second compound 0.000949 µM, first compound 0.1 µM
[3] = second compound 0.000949 µM, first compound 0.316 µM
[4] = second compound 0.000949 µM, first compound 1 µM
[5] = second compound 0.003 µM, first compound 0.0316 µM
[6] = second compound 0.003 µM, first compound 0.1 µM
[7] = second compound 0.003 µM, first compound 0.316 µM
[8] = second compound 0.003 µM, first compound 1 µM
[9] = second compound 0.00949 µM, first compound 0.0316 µM
[10] = second compound 0.00949 µM, first compound 0.1 µM
[11] = second compound 0.00949 µM, first compound 0.316 µM
[12] = second compound 0.00949 µM, first compound 1 µM
[13] = second compound 0.03 µM, first compound 0.0316 µM
[14] = second compound 0.03 µM, first compound 0.1 µM
[15] = second compound 0.03 µM, first compound 0.316 µM
[16] = second compound 0.03 µM, first compound 1 µM
[17] = second compound 0.0949 µM, first compound 0.0316 µM
[18] = second compound 0.0949 µM, first compound 0.1 µM
[19] = second compound 0.0949 µM, first compound 0.316 µM
[20] = second compound 0.0949 µM, first compound 1 µM
[21] = second compound 0.3 µM, first compound 0.0316 µM
[22] = second compound 0.3 µM, first compound 0.1 µM
[23] = second compound 0.3 µM, first compound 0.316 µM
[24] = second compound 0.3 µM, first compound 1 µM
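Also: spheroids exposed to compound for seven days before viability readout.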

IC50 (second compound 0.000949 µM): < 3.16 nM
IC50 (second compound 0.003 µM): < 3.16 nM
IC50 (second compound 0.00949 µM): < 3.16 nM
IC50 (second compound 0.03 µM): < 3.16 nM
IC50 (second compound 0.0949 µM): < 3.16 nM
IC50 (second compound 0.3 µM): < 3.16 nM
Compound: Nc1ccn(C2OC(CO)C(O)C2(F)F)c(=O)n1 (stereo unspecified) + CCn1c(-c2cc(N3CCN(C)CC3)cnc2C(C)OC)c2c3cc(ccc31)-c1csc(n1)CC(NC(=O)C1CC1C)C(=O)N1CCCC(N1)C(=O)OCC(C)(C)C2
viability, T/C (second compound 0.000949 µM, first compound 0.00316 µM): 33.4%
viability, T/C (second compound 0.000949 µM, first compound 0.01 µM): 6.66%
viability, T/C [1]: 5.75%
viability, T/C [2]: 4.77%
viability, T/C [3]: 5.22%
viability, T/C [4]: 4.87%
viability, T/C (second compound 0.003 µM, first compound 0.00316 µM): 21.9%
viability, T/C (second compound 0.003 µM, first compound 0.01 µM): 6.3%
viability, T/C [5]: 5.15%
viability, T/C [6]: 4.81%
viability, T/C [7]: 4.73%
viability, T/C [8]: 4.09%
viability, T/C (second compound 0.00949 µM, first compound 0.00316 µM): 24.4%
viability, T/C (second compound 0.00949 µM, first compound 0.01 µM): 6.44%
viability, T/C [9]: 5.46%
viability, T/C [10]: 4.39%
viability, T/C [11]: 5.27%
viability, T/C [12]: 4.67%
viability, T/C (second compound 0.03 µM, first compound 0.00316 µM): 29%
viability, T/C (second compound 0.03 µM, first compound 0.01 µM): 9.12%
viability, T/C [13]: 4.98%
viability, T/C [14]: 5.4%
viability, T/C [15]: 5.08%
viability, T/C [16]: 5.39%
viability, T/C (second compound 0.0949 µM, first compound 0.00316 µM): 43.2%
viability, T/C (second compound 0.0949 µM, first compound 0.01 µM): 10.6%
viability, T/C [17]: 4.96%
viability, T/C [18]: 5.29%
viability, T/C [19]: 5.26%
viability, T/C [20]: 4.88%
viability, T/C (second compound 0.3 µM, first compound 0.00316 µM): 46.8%
viability, T/C (second compound 0.3 µM, first compound 0.01 µM): 16.9%
viability, T/C [21]: 6.97%
viability, T/C [22]: 5.92%
viability, T/C [23]: 5.96%
viability, T/C [24]: 5.73%

IC50 (second compound 0.0316 µM): 1.12 nM
IC50 (second compound 0.1 µM): < 0.949 nM
IC50 (second compound 0.316 µM): < 0.949 nM
IC50 (second compound 1 µM): 1.34 nM
IC50 (second compound 3.16 µM): < 0.949 nM
IC50 (second compound 10 µM): < 0.949 nM
Compound: CC1(C)CCC(Nc2ncc(C(F)(F)F)c(-c3c[nH]c4c(P(C)(C)=O)c(C#N)ccc34)n2)CN1 (stereo unspecified) + C#Cc1c(F)ccc2cc(O)cc(-c3ncc4c(N5CC6CCC(C5)N6)nc(OCC56CCCN5CC(F)C6)nc4c3F)c12
viability, T/C (second compound 0.0316 µM, first compound 0.000949 µM): 54.5%
viability, T/C (second compound 0.0316 µM, first compound 0.003 µM): 25.6%
viability, T/C (second compound 0.0316 µM, first compound 0.00949 µM): 14.3%
viability, T/C (second compound 0.0316 µM, first compound 0.03 µM): 11.7%
viability, T/C (second compound 0.0316 µM, first compound 0.0949 µM): 11.1%
viability, T/C (second compound 0.0316 µM, first compound 0.3 µM): 7.01%
viability, T/C (second compound 0.1 µM, first compound 0.000949 µM): 34.8%
viability, T/C (second compound 0.1 µM, first compound 0.003 µM): 24%
viability, T/C (second compound 0.1 µM, first compound 0.00949 µM): 17%
viability, T/C (second compound 0.1 µM, first compound 0.03 µM): 9.95%
viability, T/C (second compound 0.1 µM, first compound 0.0949 µM): 8.49%
viability, T/C (second compound 0.1 µM, first compound 0.3 µM): 8.13%
viability, T/C (second compound 0.316 µM, first compound 0.000949 µM): 49.9%
viability, T/C (second compound 0.316 µM, first compound 0.003 µM): 26.9%
viability, T/C (second compound 0.316 µM, first compound 0.00949 µM): 12.6%
viability, T/C (second compound 0.316 µM, first compound 0.03 µM): 10.3%
viability, T/C (second compound 0.316 µM, first compound 0.0949 µM): 10.5%
viability, T/C (second compound 0.316 µM, first compound 0.3 µM): 8.25%
viability, T/C (second compound 1 µM, first compound 0.000949 µM): 57.1%
viability, T/C (second compound 1 µM, first compound 0.003 µM): 33.4%
viability, T/C (second compound 1 µM, first compound 0.00949 µM): 13%
viability, T/C (second compound 1 µM, first compound 0.03 µM): 10.9%
viability, T/C (second compound 1 µM, first compound 0.0949 µM): 11.2%
viability, T/C (second compound 1 µM, first compound 0.3 µM): 8.31%
viability, T/C (second compound 3.16 µM, first compound 0.000949 µM): 43.3%
viability, T/C (second compound 3.16 µM, first compound 0.003 µM): 24.5%
viability, T/C (second compound 3.16 µM, first compound 0.00949 µM): 12.6%
viability, T/C (second compound 3.16 µM, first compound 0.03 µM): 10.2%
viability, T/C (second compound 3.16 µM, first compound 0.0949 µM): 9.93%
viability, T/C (second compound 3.16 µM, first compound 0.3 µM): 8.57%
viability, T/C (second compound 10 µM, first compound 0.000949 µM): 48.4%
viability, T/C (second compound 10 µM, first compound 0.003 µM): 23.8%
viability, T/C (second compound 10 µM, first compound 0.00949 µM): 16.3%
viability, T/C (second compound 10 µM, first compound 0.03 µM): 10.4%
viability, T/C (second compound 10 µM, first compound 0.0949 µM): 9.78%
viability, T/C (second compound 10 µM, first compound 0.3 µM): 7.07%

IC50 (second compound 0.000949 µM): 825 nM
IC50 (second compound 0.003 µM): 1050 nM
IC50 (second compound 0.00949 µM): 1140 nM
IC50 (second compound 0.03 µM): 842 nM
IC50 (second compound 0.0949 µM): 985 nM
IC50 (second compound 0.3 µM): 986 nM
Compound: CCC(CC)c1cc(NC2CCC(N)C2)n2nccc2n1 (stereo unspecified) + CCn1c(-c2cc(N3CCN(C)CC3)cnc2C(C)OC)c2c3cc(ccc31)-c1csc(n1)CC(NC(=O)C1CC1C)C(=O)N1CCCC(N1)C(=O)OCC(C)(C)C2
viability, T/C [1]: 96.1%
viability, T/C [2]: 91.7%
viability, T/C [3]: 98.7%
viability, T/C [4]: 40.8%
viability, T/C (second compound 0.000949 µM, first compound 3.16 µM): 2.44%
viability, T/C (second compound 0.000949 µM, first compound 10 µM): 2.65%
viability, T/C [5]: 103%
viability, T/C [6]: 106%
viability, T/C [7]: 96.5%
viability, T/C [8]: 52.7%
viability, T/C (second compound 0.003 µM, first compound 3.16 µM): 2.69%
viability, T/C (second compound 0.003 µM, first compound 10 µM): 2.78%
viability, T/C [9]: 94.8%
viability, T/C [10]: 94.3%
viability, T/C [11]: 90%
viability, T/C [12]: 56.3%
viability, T/C (second compound 0.00949 µM, first compound 3.16 µM): 2.15%
viability, T/C (second compound 0.00949 µM, first compound 10 µM): 2.27%
viability, T/C [13]: 107%
viability, T/C [14]: 103%
viability, T/C [15]: 94.1%
viability, T/C [16]: 42.8%
viability, T/C (second compound 0.03 µM, first compound 3.16 µM): 2.26%
viability, T/C (second compound 0.03 µM, first compound 10 µM): 2.15%
viability, T/C [17]: 119%
viability, T/C [18]: 103%
viability, T/C [19]: 99.8%
viability, T/C [20]: 50.7%
viability, T/C (second compound 0.0949 µM, first compound 3.16 µM): 2.85%
viability, T/C (second compound 0.0949 µM, first compound 10 µM): 2.9%
viability, T/C [21]: 116%
viability, T/C [22]: 107%
viability, T/C [23]: 108%
viability, T/C [24]: 49.4%
viability, T/C (second compound 0.3 µM, first compound 3.16 µM): 2.38%
viability, T/C (second compound 0.3 µM, first compound 10 µM): 2.44%
